The source of these data is patent publication US10815283B2, “Peptides for treatment of diabetes” (Follicum AB, priority 2017, dated 2020).

One series relates to isolated mouse islets. In words: Insulin and glucagon secretion from isolated mouse islets at low and high glucose (Example 12). It is filed as cell-based. The settings on record: 100 nM GLP-1, 1 h. On the procedure: Twelve-week-old male C57/bl6 mice were euthanized with isoflurane and cervical dislocation. After clamping the hepatic ducts, 3 ml of 0.9 U/ml collagenase P was injected into the bile duct to inflate the pancreas. The pancreas was then removed and digested for 19 min at 37° C. The samples were vigorously shaken to disrupt the tissue. The digest was quickly transferred into ice cold Hank's Balanced Salts Solution with Ca^2+ and Mg^2+. The suspension was allowed to sit for 8 min to allow the islet to sink, and the islets were washed in the same manner four times. The islets were then handpicked and sorted according to size.
Freshly isolated islets were seeded in groups of 5 in a 96-well plate and preincubated for 1 h at 37° C. in a Krebs-Ringer bicarbonate buffer (pH 7.4). The islets were incubated for 1 h at 37° C. in Krebs-Ringer buffered solution supplemented with 0.6 or 6 μM FOL-014 or 100 nM GLP-1 or left unsupplemented for control. Immediately after incubation, the medium was removed for assays of insulin and glucagon using Mercodia's ELISA kits. The effect of FOL-014 on insulin (FIGS. 8A and B) and glucagon (FIGS. 8C and D) secretion from isolated mouse islets was measured in the presence of low glucose (2.8 mM; FIGS. 8A and C) or high glucose (16.7 mM; FIGS. 8B and D) concentrations.

The next series deals with mouse pancreatic islets. In words: Insulin secretion from isolated mouse pancreatic islets (Examples 5 and 7). It is filed as cell-based. The settings on record: 60 min. The protocol: Mouse pancreatic islets were isolated from 8-week old C57BL/6J male mice (Taconic). Mice were sacrificed by an overdose of isoflurane and cervical dislocation. 3 ml of 0.9 U/ml collagenase P was injected into the pancreatic duct to inflate the pancreas. The pancreas was then removed and collagen digested for 19 min at 37° C. The samples were vigorously shaken to disrupt the tissue. The digest was transferred into ice cold Hank's Balanced Salt Solution (HBSS) with Ca^2+ and Mg^2+. The suspension was allowed to sit for 10 min to allow the islet to sink, and the islets were washed in fresh HBSS four times. The islets were then hand-picked and sorted according to size. Islets (n=3 per well in a 96 well plate) were pre-incubated in KRB buffer during 10 min 37° C., pH 7.4, supplemented with 10 mM HEPES, 0.1% bovine serum albumin. After pre-incubation, the buffer was changed and islets were incubated at different test conditions in new KRB buffer with 0.1% bovine serum albumin (non-treated ctrl, FOL-005 peptide, or GLP-1) for 60 min at 37° C. Immediately after incubation, an aliquot of the buffer was removed and frozen for subsequent assay of insulin.
Mouse pancreatic islets were isolated from 8-week old C57BL/6J male mice as described under example 5. The islets were then hand-picked and sorted according to size. Islets (n=5 per well in a 96 well plate) were pre-incubated in 200 μl KRB buffer during 10 min 37° C., pH 7.4, supplemented with 10 mM HEPES, 0.1% bovine serum albumin. Following pre-incubation, the buffer was changed and islets were incubated in different test conditions in new KRB buffer with 0.1% bovine serum albumin (non-treated ctrl, FOL-014 peptide, and GLP-1) for 60 min at 37° C. Immediately after incubation, an aliquot of the buffer was removed and frozen for subsequent assay of insulin.

The subject of series [1] is INS-1 cells. The series is described as follows: Proliferation of INS-1 cells, [methyl-3H] thymidine incorporation. It is filed as cell-based, rat. The protocol:
To investigate if FOL-005 and FOL-014 could induce proliferation of β-cells we used INS-1 cells. Rat INS-1 cells were seeded in 96-well plates in RPMI medium with supplement and after 2 hours the medium was changed to RPMI without supplement. During the proliferation experiment the cells were incubated at different test conditions (FOL-005, FOL-014, coated or in solution, 48 h incubation) and during the last 20 hours of culture period the cells were pulsed with 1μ Ci/well of [methyl-3H] thymidine. The cells were then harvested onto glass fiber filters using a FilterMate harvester. The filters were air dried, and the bound radioactivity was measured using a liquid scintillation counter. To study whether FOL-005 influenced β-cell proliferation, INS-1 cells were treated with increasing amounts of soluble FOL-005 (0.06-6 μM) during 48 hours and proliferation was measured with radiolabeled thymidine incorporation into newly synthesized DNA.
For orientation: Uptake of a labelled nucleoside into DNA is a usual measure of proliferation.

Series [2] can be described thus: Distribution of H3 labelled peptide, whole body sectioning. It is filed as in vivo, mouse. Particulars: subcutaneous, C57Bl/6 mice, 1 h and 2 h after injection. The protocol:
C57Bl/6 mice were injected subcutaneously with H^3 labelled FOL-005 and euthanized at 1 h (FIG. 12A) or 2 h (FIG. 12B) after injection. Following whole body sectioning the distribution of the labelled peptide was visualised. […] Using Pearl Trilogy Small Animal Imaging System, in vivo bio-distribution and tissue localization of two Cy7.5 labelled peptides, FOL-005 (FIG. 12C) and FOL-014 (FIG. 12D) in NMRI nude mice via subcutaneous injection was investigated. […] The dose of each peptide was 10 nmol per mouse. The mice were imaged before injection, at 5 min, 20 min, 50 min, 60 min, 2 hrs, 4 hrs, 6 hrs, 24 hrs and 48 hrs post administration of labelled peptide.

A further series relates to INS-1 β-cells. In words: Insulin secretion from INS-1 cells, insulin radioimmunoassay (Examples 4 and 6). It is filed as cell-based, rat. The settings on record: peptide 6 μM, 60 min. The protocol: To investigate the stimulatory effect of FOL-005 on insulin secretion, INS-1 β-cells were used in the following experiments. Cells were seeded overnight in cRPMI and then washed with PBS before pre-incubation for 60 min at 37° C. in Krebs-Ringer bicarbonate buffer (KRB), pH 7.4, supplemented with 10 mM HEPES, 0.1% bovine serum albumin. After pre-incubation, the buffer was changed and the INS-1 cells were incubated at different test conditions (0 mM, 5 mM or 20 mM glucose) and stimulated with peptide FOL-005 or FOL-015 (SEQ ID NO: 158) or left untreated during 60 min at 37° C. Immediately after incubation, an aliquot of the buffer was removed and frozen for subsequent assay of insulin with an insulin radioimmunoassay kit.
INS-1 β-cells were used to investigate the stimulatory effect of FOL-014 on insulin secretion. Cells were seeded overnight and then washed with PBS before pre-incubation for 60 min at 37° C. in Krebs-Ringer bicarbonate buffer (KRB), pH 7.4, supplemented with 10 mM HEPES, 0.1% bovine serum albumin. After pre-incubation, the buffer was changed and the INS-1 cells were incubated in new KRB buffer supplemented with 10 mM HEPES, 0.1% bovine serum albumin and stimulated with peptide FOL-014 or left untreated during 60 min at 37° C. Immediately after incubation, an aliquot of the buffer was removed and frozen for subsequent assay of insulin.

A short description of series [3]: In vivo bio-distribution of Cy7.5 labelled peptides, Pearl Trilogy Small Animal Imaging System. More on the design: species or system mouse. The settings on record: Cy7.5 labelled peptide.
Series [4] has as its system INS-1 cells. The series is described as follows: Glucotoxicity-induced apoptosis in INS-1 cells (Annexin V staining, caspase-3 activity). It is filed as cell-based, rat. Particulars: 20 mM glucose, 48 h, vs 20 mM glucose alone. On the procedure:
Since glucotoxicity in pancreatic β-cells is a well-established process in type 2 diabetes we next investigated the protective effects of FOL-005 on β-cells during glucotoxic conditions. First we confirmed that 20 mM glucose induced cell apoptosis in INS cells after 48 h of exposure. High glucose (20 mM) containing RPMI medium induced more Annexin V positive cells and more caspase-3 activity in INS cells compared to cells incubated with medium containing 5 mM glucose (FIG. 2A-B). […] The rate of apoptosis in INS-1 cells was measured with either Caspase-3 Assay Kit or stained with Annexin V Apoptosis Detection Kit with 7-AAD. Caspase-3 activity was measured with fluorescence at an excitation wavelength of 380 nm and an emission wavelength of 440 nm. Caspase-3 activity was then normalized to protein concentration in each well. Measurements of Annexin V stained cells were performed using a CyAn ADP flow cytometer and analyzed with Summit V4.3 software.

“Also recorded” adds a separate entry of the source. No end group written: not given here.

On to “glucagon-like peptide-1 (HAEGTFTSDVSSYLEGQAAKEFIAWLVKGR; ends and bridges not checked; UniProt P01275 98-127, looked up) [GLP-1, metabolic hormone that stimulates insulin secretion; native GLP-1 used as comparator]”, for which the glucagon secretion result was “efficiently reduced glucagon secretion” with isolated mouse islets (high glucose (16.7 mM)) and “failed to inhibit glucagon secretion in low glucose conditions” in the series on isolated mouse islets (low glucose (2.8 mM)). The insulin secretion result in the series with isolated mouse islets (high glucose (16.7 mM)) is listed as “significantly increased insulin secretion”; in the series with isolated mouse islets (low glucose (2.8 mM)), “enhanced insulin secretion also in low glucose samples”; in the series on mouse pancreatic islets (Example 5, 3 islets per well, GLP-1 100 nM) it was “secreted more insulin compared to unstimulated control islets”; in the series on mouse pancreatic islets (Example 7, 5 islets per well, GLP-1 100 nM) it was “did not affect insulin secretion”.
As to “VDTYDGDISVVYGLR ((1)..(15) peptide, FOL-005)”, the “INS-1 cell proliferation (radiolabeled thymidine incorporation)” value in the series with INS-1 cells [1] (soluble peptide 0.06-6 μM, 48 hours) is “stimulated INS-1 cell proliferation”; with INS-1 cells [1] (wells coated with peptide and blocked with BSA, vs control coated wells), “stimulated proliferation compared to control (ctrl) coated wells”. For the same substance, the “tissue distribution of radioactivity” value in series [2] is “Strong binding was evident in pancreas and at the site of injection; also recorded: also visible in liver, kidney, salivary glands”. Moreover, the insulin secretion entry is listed as “secreted more insulin compared to unstimulated control islets” with mouse pancreatic islets (Example 5, 3 islets per well, peptide 6 μM); “responded with insulin secretion” in the series on INS-1 β-cells (5 mM glucose); “responded with more insulin secretion compared to FOL-005 stimulated cells incubated with 5 mM glucose” in the series with INS-1 β-cells (20 mM glucose); “secreted more insulin compared to unstimulated control cells” with INS-1 β-cells (conditions without glucose). For the same substance, the “bio-distribution and tissue localization” value is recorded as “same distribution pattern” in series [3] (i.v. administration (not shown)) and “High accumulation of the peptide was evident in the pancreatic tissue area” in series [3] (subcutaneous, 10 nmol per mouse, NMRI nude mice, 5 min to 48 hrs). In addition, in the series with INS-1 cells [4], the “cell apoptosis, Annexin V staining” value was “decreased cell apoptosis”. Moreover, the “cell apoptosis, caspase-3 activity” value in the series with INS-1 cells [4] is recorded as “decreased cell apoptosis”.
